The target in the assay is canine TRPM8 (Canis lupus familiaris, UniProt Q1A7N1). In words: In Vitro Canine TRPM8 Functional Assay (Ca2+ fluorescence, icilin activation). The settings on record: for IC50: HEK293 cells stably expressing canine TRPM8, icilin activation, eight-point dose-response, read-out: IC50; for inhibition at 0.2 µM / % Inh @ 0.2 (μM): compound at 0.2 μM; for inhibition at 0.2 µM / inhibition at 0.5 µM / % Inh @ 0.2 (μM): canine TRPM8, icilin activation; for inhibition at 0.2 µM: read-out: % Inh @ 0.2; for inhibition at 0.5 µM: compound at 0.5 μM, read-out: % Inh @ 0.5. It counts as cell-based. A digest of the protocol: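 Cells (HEK293, stable canine TRPM8) are seeded 24 h before assay. They are then dye-loaded with Calcium 3 at 37 °C followed by room temperature. Compound is added and monitored for 5 min, after which icilin (~80% maximal response) is added.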
Sequence of canine TRPM8 (Q1A7N1 1-1104): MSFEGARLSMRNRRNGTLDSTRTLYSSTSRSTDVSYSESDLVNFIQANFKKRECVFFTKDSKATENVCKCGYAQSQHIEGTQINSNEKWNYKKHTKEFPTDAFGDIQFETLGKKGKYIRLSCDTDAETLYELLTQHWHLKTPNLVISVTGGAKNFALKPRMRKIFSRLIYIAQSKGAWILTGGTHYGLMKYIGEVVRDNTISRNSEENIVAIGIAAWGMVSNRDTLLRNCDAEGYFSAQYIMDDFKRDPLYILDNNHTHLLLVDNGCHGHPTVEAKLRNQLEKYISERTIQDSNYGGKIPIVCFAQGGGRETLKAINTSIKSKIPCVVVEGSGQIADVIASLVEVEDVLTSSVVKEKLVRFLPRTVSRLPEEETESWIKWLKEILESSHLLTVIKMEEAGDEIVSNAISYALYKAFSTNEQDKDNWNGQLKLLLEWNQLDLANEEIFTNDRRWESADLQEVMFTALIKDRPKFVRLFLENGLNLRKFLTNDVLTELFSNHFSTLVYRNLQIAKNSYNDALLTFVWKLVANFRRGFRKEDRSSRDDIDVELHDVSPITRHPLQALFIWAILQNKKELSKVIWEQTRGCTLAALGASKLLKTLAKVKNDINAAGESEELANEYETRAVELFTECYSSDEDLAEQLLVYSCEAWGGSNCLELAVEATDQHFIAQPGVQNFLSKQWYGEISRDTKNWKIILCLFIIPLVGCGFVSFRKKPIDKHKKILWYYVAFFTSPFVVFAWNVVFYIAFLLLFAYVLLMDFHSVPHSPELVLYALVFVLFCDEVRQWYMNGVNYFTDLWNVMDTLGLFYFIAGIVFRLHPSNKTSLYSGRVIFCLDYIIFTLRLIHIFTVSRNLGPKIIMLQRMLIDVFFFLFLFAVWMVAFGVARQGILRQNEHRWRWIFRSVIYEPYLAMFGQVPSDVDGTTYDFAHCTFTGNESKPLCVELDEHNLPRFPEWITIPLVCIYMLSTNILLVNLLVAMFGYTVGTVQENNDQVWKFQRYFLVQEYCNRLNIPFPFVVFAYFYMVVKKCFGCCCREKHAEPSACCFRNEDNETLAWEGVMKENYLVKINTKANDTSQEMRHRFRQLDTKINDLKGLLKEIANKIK

This is an account of results in US9434711B2 (Janssen Pharmaceutica, NV, priority 2007, dated 2016).

With `Cc1c(N(CCCC(F)(F)F)S(=O)(=O)c2ccc3[nH]c(=O)oc3c2)sc2ccccc12` [Compound 384, N-(3-Methyl-benzo[b]thiophen-2-yl)-N-(4,4,4-trifluoro-butyl)-2-oxo-2,3-dihydro-benzooxazol-6-yl-sulfonamide], the IC50 is 17 nM and the inhibition at 0.2 µM was found to be 96%. The like results for `CC(C)(C)OCCCN(c1sc2ccccc2c1Br)S(=O)(=O)c1ccc(C(=O)O)cc1` [Compound 397, N-(3-Bromo-benzo[b]thiophen-2-yl)-N-(3-tert-butoxypropyl)-4-carboxy-benzenesulfonamide] were, in that order, 8 nM and 95%.

As to `O=S(=O)(c1ccc(Cl)nc1)N(Cc1ccc(F)c(C(F)(F)F)c1)c1cc2ccccc2s1` [Compound 311, N-(Benzo[b]thiophen-2-yl)-N-(4-fluoro-3-trifluoromethyl-benzyl)-2-chloro-pyridin-5-ylsulfonamide], the IC50 came out at 148 nM and the inhibition at 0.2 µM amounted to 82%.

For the compound `O=S(=O)(c1ccccc1)N(Cc1ccccc1F)c1cc2ccccc2s1` [Compound 50, N-(Benzo[b]thiophen-2-yl)-N-(2-fluoro-benzyl)-benzenesulfonamide], the IC50 was determined as 66 nM and the inhibition at 0.5 µM is 99%. As to `CNC1=C(N(CCC2CC2)S(=O)(=O)c2ccccc2)S(=O)(=O)c2ccccc21` [Compound 644, N-(2-Cyclopropylethyl)-N-(3-methylamino-1,1-dioxo-1H-benzo[b]thiophen-2-yl)-benzenesulfonamide], the inhibition at 0.2 µM came out at 63%. `O=S(=O)(c1ccccc1)N(CC1CCCCC1)c1cc2ccccc2s1` [Compound 118, N-(Benzo[b]thiophen-2-yl)-N-(cyclohexylmethyl)-benzenesulfonamide]: the IC50 worked out at 48 nM and the inhibition at 0.5 µM came to 100%. `CC(=O)C1=C(N(Cc2ccc(F)c(C(F)(F)F)c2)S(=O)(=O)c2ccccc2)S(=O)(=O)c2ccccc21` [Compound 460, N-(3-Acetyl-1,1-dioxo-1H-benzo[b]thiophen-2-yl)-N-(4-fluoro-3-trifluoromethyl-benzyl)-benzenesulfonamide]: the IC50 was 8 nM and the inhibition at 0.2 µM came to 102%. As to `CCCCS(=O)(=O)N(Cc1ccc(F)c(F)c1)c1sc2ccccc2c1Br` [Compound 154, N-(3-Bromo-benzo[b]thiophen-2-yl)-N-(3,4-difluoro-benzyl)-butane-1-sulfonamide], the IC50 was 36.2 nM and the inhibition at 0.5 µM was found to be 96%. Turning to `Cc1c(N(Cc2ccc(F)c(C(F)(F)F)c2)S(=O)(=O)c2ccc(C(=O)O)o2)sc2ccccc12` [Compound 529, N-(3-Methyl-benzo[b]thiophen-2-yl)-N-(4-fluoro-3-trifluoromethyl-benzyl)-5-carboxy-furan-2-yl-sulfonamide], the inhibition at 0.2 µM came out at 35%. Consider `Cc1c(N(Cc2ccc(F)c(C(F)(F)F)c2)S(=O)(=O)c2ccc(C(C)(C)O)cc2)sc2ccccc12` [Compound 374, N-(3-Methyl-benzo[b]thiophen-2-yl)-N-(4-fluoro-3-trifluoromethyl-benzyl)-4-(1-hydroxy-1-methyl-ethyl)-benzenesulfonamide], for which the IC50 is 4 nM and the inhibition at 0.2 µM turned out to be 89%. The like results for `CS(=O)(=O)N(Cc1ccc(F)c(F)c1)c1sc2ccccc2c1CO` [Compound 216, N-(3,4-Difluoro-benzyl)-N-(3-hydroxymethyl-benzo[b]thiophen-2-yl)-methanesulfonamide] were, in that order, 14 nM and 100%. Take “N-(3-Chloro-benzo[b]thiophen-2-yl)-N-(4,4,4-trifluoro-butyl)-4-(5-oxo-4,5-dihydro-[1,2,4]oxadiazol-3-yl)-benzenesulfonamide [Compound 515]”: the “% Inh @ 0.2 (μM)” value stood at 49%.

For `Cc1c(N(CCC(F)(F)F)S(C)(=O)=O)sc2ccccc12` [Compound 364, N-(3-Methyl-benzo[b]thiophen-2-yl)-N-(3,3,3-trifluoro-propyl)-methanesulfonamide], the IC50 was 44 nM and the inhibition at 0.2 µM worked out at 77%.

As for `O=C(O)c1ccc(S(=O)(=O)N(CCCCC(F)(F)F)c2sc3ccccc3c2Br)c(F)c1` [Compound 707, N-(3-Bromo-benzo[b]thiophen-2-yl)-N-(5,5,5-trifluoro-pentyl)-2-fluoro-4-carboxy-benzenesulfonamide], the IC50 stood at 3 nM and the inhibition at 0.2 µM was determined as 102%. Regarding `O=C(O)c1ccc(S(=O)(=O)N(CCC2CC2)c2cc3ccccc3s2)c(F)c1` [Compound 638, N-(3-Benzo[b]thiophen-2-yl)-N-(2-cyclopropyl-ethyl)-2-fluoro-4-carboxy-benzenesulfonamide], the IC50 is 60 nM and the “% Inh @ 0.2 (μM)” value was found to be 100%. For `O=C(O)c1ccc(S(=O)(=O)N(Cc2ccc(OC(F)(F)F)cc2)c2sc3ccccc3c2C2CCC2)cc1` [Compound 756, N-(3-Cyclobutyl-benzo[b]thiophen-2-yl)-N-(4-trifluoromethoxy-benzyl)-4-carboxy-benzenesulfonamide], the IC50 came to 1.4 nM and the inhibition at 0.2 µM came to 101%. The matching figures for `Cc1c(N(CCCCC(F)(F)F)S(=O)(=O)c2cccc(C#N)c2)sc2ccccc12` [Compound 552, N-(3-Methyl-benzo[b]thiophen-2-yl)-N-(5,5,5-trifluoro-pentyl)-3-cyano-benzenesulfonamide]: 25.1 nM and 101%. The matching figures for `COC(=O)c1ccc(S(=O)(=O)N(CCCC(F)(F)F)c2sc3ccccc3c2C)cc1` [Compound 630, N-(3-Methyl-benzo[b]thiophen-2-yl)-N-(4,4,4-trifluoro-butyl)-4-carbomethoxy-benzenesulfonamide]: 35.6 nM and 103%. For `Cc1c(N(Cc2ccc(F)c(C(F)(F)F)c2)S(=O)(=O)c2ccc(-c3noc(=O)[nH]3)cc2)sc2ccccc12` [Compound 544, N-(3-Methyl-benzo[b]thiophen-2-yl)-N-(4-fluoro-3-trifluoromethyl-benzyl)-4-(5-oxo-4,5-dihydro-[1,2,4]oxadiazol-3-yl)-benzenesulfonamide], the IC50 was 1.8 nM and the inhibition at 0.2 µM stood at 105%. With `COc1cccc(CN(c2cc3ccccc3s2)S(=O)(=O)c2ccccc2)c1` [Compound 48, N-(Benzo[b]thiophen-2-yl)-N-(3-methoxy-benzyl)-benzenesulfonamide], the IC50 was 79 nM and the inhibition at 0.5 µM was 98%. In the case of `O=C1NCCN1CCN(c1sc2ccccc2c1Cl)S(=O)(=O)c1ccccc1` [Compound 91, N-(3-Chloro-benzo[b]thiophen-2-yl)-N-[2-(2-oxo-imidazolidin-1-yl)-ethyl]-benzenesulfonamide], the inhibition at 0.5 µM stood at 33%. Consider `O=S(=O)(c1ccc(-c2nnn[nH]2)cc1)N(CCCCC(F)(F)F)c1sc2ccccc2c1Br` [Compound 579, N-(3-Bromo-benzo[b]thiophen-2-yl)-N-(5,5,5-trifluoro-pentyl)-4-(1H-tetrazol-5-yl)-benzenesulfonamide], for which the inhibition at 0.2 µM came to 102%.
